Each block holds one molecule with its values, some of them ahead of it.
Columns and labels:
[1] = obtained online; cited from earlier work
SKMEL-28 cells = test: In vitro oxidative stress detection; type: cell-based, Human; conditions: positive control, 1 μM, 15 minutes
Experimental: The in vitro oxidative stress was analyzed using the Image-IT® LIVE Green Reactive Oxygen Species Detection Kit from Thermo Fisher according to manufacturer's instructions. SKMEL-28 cells were seeded in a 12-well plate. PcNP was added at a final concentration of 25 μg/mL. After incubation for 12 hours, the cells were labelled with carboxy-H2DCFDA for 10 minutes and washed with PBS. The cells corresponding to the PcNP+hv treatment were irradiated with 730 nm, 0.75 W/cm^2 laser for 20 minutes. A positive control using common ROS production inducer TBHP was added to a final concentration of 1 μM and incubated for 15 minutes. After the treatment, the cell nuclei were labeled with Hoechst 33342 (1 μM). Coverslips were then washed with PBS, fixed and mounted onto microscopy glass slides for imaging by CLSM. Carboxy-H2DCFDA λex/em: 488/529 nm, Hoechst 33342 λex/em: 350/461 nm.

[2] = Topical penetration of porcine skin, IVIS fluorescence; type: in vitro ADME; conditions: regardless of the microneedle treatment
Experimental: Fresh full-thickness porcine skin was obtained from a local wholesaler and cut into 1 cm by 1 cm pieces. The subcutaneous fats were gently stripped from the porcine skin. Any remaining skin was kept frozen at −20° C. and used as soon as possible. A pyramidal stainless steel microneedle patch consisting of 100 needles in a 10×10 array with a height of ˜500 μm, a tip radius of 5 μm, a pitch of ˜700 μm and a base width of ˜300 μm was obtained from Micropoint Technologies Pte Ltd (Singapore). […] PcNP solution at 20 mg/mL concentration was compared against free Pc (equivalent to the concentration of Pc in PcNP at 20 mg/mL). The penetration of PcNP was tested after two durations: 10 minutes and 1 hour. The penetration was conducted with and without the help of the microneedle patch. Briefly, if required, the skin was pierced with the microneedle patch under a force of about 4 N for 10 seconds before its removal. […] The fluorescence intensity of the adsorbed Pc was measured using an IVIS SpectrumCT Pre-clinical in Vivo Imaging System (Perkin Elmer), where λex/em is 640/700-760 nm. […] To calculate the percentage of PcNP that penetrated into the skin, the intensity reading for each skin was normalized against that of PBS and PcNP positive control. In the case of free Pc penetration, this percentage was calculated by normalizing the readings against that of PBS and free Pc positive control.

SMILES: CN(C)c1ccc2nc3ccc(=[N+](C)C)cc-3sc2c1 [MB, methylene blue]
singlet oxygen quantum yield ΦΔ(MB), reference value [1]: 0.52

SMILES: CC(C)(C)OO [TBHP, tert-Butyl hydroperoxide]
cells oxidatively stressed (SKMEL-28 cells): about 74%

skin penetration [2]: minimal skin penetration
SMILES: c1ccc2c(c1)-c1nc-2nc2[nH]c(nc3nc(nc4[nH]c(n1)c1ccccc41)-c1ccccc1-3)c1ccccc21 [free Pc, Phthalocyanine]

From patent US20210000955A1, “PHOTODYNAMICALLY ACTIVE ORGANOSILICA NANOPARTICLES AND MEDICAL USES THEREOF” (NANYANG TECHNOLOGICAL UNIVERSITY, priority 2017, published 2021)
